According to patent US6369057B1, “Quinoxalines, processes for their preparation and their use” (Aventis Pharma Deutschland GmbH, priority 1991, dated 2002):
Converted amounts (≈) assume the structure as drawn. Structures can show the parent of a compound that is named as a salt.

How the values were obtained:
[1] = molecular target: T1, HIV reverse transcriptase (RT) (Human immunodeficiency virus type 1 group M subtype B, UniProt P03366); assay: Assay for HIV reverse transcriptase inhibition (scintillation proximity assay); type: biochemical; settings: RT from HIV cloned in E. coli; SPA, 60 minutes (37° C.); read-out: Reverse Transcriptase Assay IC50 (converted)
T1 construct: The enzyme RT (from HIV cloned in E. coli); purchased HT-Biotechnology Ltd, Cambridge, UK; host or cells: E. coli
Method: Assay of the Substances for HIV Reverse Transcriptase Inhibition
The activity of reverse transcriptase (RT) was determined with the aid of a scintillation proximity assay (SPA).
The reagent kit for the RT-SPA was obtained from Amersham/Buchler (Braunschweig).
The enzyme RT (from HIV cloned in E. coli) originated from HT-Biotechnology Ltd, Cambridge, UK.
The assay was carried out using the manufacturer's (Amersham) protocol manual, with the following modifications: bovine serum albumin was added to the assay buffer to give an end concentration of 0.5 mg/ml the assay was carried out in Eppendorf reaction vessels, using 100 μl volume per batch the manufacturer's RT concentrate (5000 U/ml) was diluted in Tris-HCl buffer 20 mM; pH 7.2; 30% of glycerol, to an activity of 15 U per ml the incubation time for the mixtures was 60 minutes (37° C.) after stopping the reaction and “developing” with the bead suspension, 130 μl of mixture were transferred to 4.5 ml of Tris-HCl buffer, 10 mM; pH 7.4; 0.15 M NaCl, and the tritium activity was measured by means of a [formula]-counter.
For a pre-assay for inhibitory activity, the substances were dissolved in DMSO (stock solution c=1 mg/ml), and tested as a 10^−1, 10^−2, 10^−3, etc., dilution in DMSO.
To determine IC50 values, the inhibitor stock solutions were diluted further in Tris-HCl buffer, 50 mM, pH 8, and tested in suitable concentrations.
The concentration corresponding to a 50% enzyme inhibition was determined from a plot of RT activity versus log Clnh.

[2] = test system: HIV; assay: Test of preparations against HIV in cell culture (T-cell culture assay); type: cell-based; settings: Human immunodeficiency virus 1, 72 h; lowest concentration where no giant cells were observed; HIV-infected lymphocytes from donor blood, 3 days at 37° C.
Method: Test of Preparations Against HIV in Cell Culture
Complete medium additionally contains 20% fetal calf serum and 40 IU/ml recombinant interleukin 2.
Lymphocytes which have been isolated from fresh donor blood by means of Ficoll gradient centrifugation are cultured for 36 hours in complete medium with an addition of 2 μg/ml phytohemagglutinin (Wellcome) at 37° C. under 5% of CO2. After 10% of DMSO has been added, the cells are frozen at a density of 5 [formula]10^6 and stored in liquid nitrogen. For the test, the cells are defrosted, washed in RPMI medium and cultured for 3-4 days in the complete medium.
The test preparations were dissolved in DMSO at a concentration of 16.7 mg/ml and diluted in complete medium to 1 mg/ml.
0.4 ml of medium was introduced into 24-multiwell dishes. 0.1 ml of the dissolved preparation was added to the upper row of the dish, and, by transferring 0.1 ml portions, a geometric dilution series was established. Controls without preparation always contained 0.4 ml of complete medium containing 0.5% of DMSO. Lymphocyte cultures with a cell density of 5 [formula]10^5 cells/ml were infected by adding 1/50 volume supernatant from HIV-infected lymphocyte cultures. The titer of these culture supernatants was determined by end-point titration as 1-5 [formula]10^6 infectious units/ml. After 30 minutes' incubation at 37° C., the infected lymphocytes were removed by centrifugation and taken up in an equal volume of medium. From this cell suspension, 0.6 ml aliquots were transferred into all wells of the test plate. The mixtures were incubated for 3 days at 37° C.
The infected cell cultures were examined under the microscope for the presence of giant cells, which indicate active virus multiplication in the culture. The lowest concentration of preparation where no giant cells were observed was determined as inhibitory concentration against HIV. As a control, the supernatants from the culture plates were tested for the presence of HIV antigen with the aid of an HIV antigen test following the manufacturer's instructions (Organon).

Row | melting point | SMILES | IC50 [1] | MIC [2]
1 | ≥ 90 °C (dec.) | CC(C)CC1Nc2c(S(=O)(=O)Oc3ccccc3)ccc(N3CCN(C)CC3)c2NC1=O (stereo not drawn) (as salt: hydrochloride) [XXXII, 8-(4-Methyl-1-piperazinyl)-3-(2-methylpropyl)-5-phenoxysulfonyl-3,4-dihydroquinoxalin-2(1H)-one] | – | –
2 | 187 to 190 °C | COc1ccc(OC(=O)N2c3cc(Cl)ccc3NC(=O)[C@@H]2C)cc1 [IX, (3S)-6-Chloro-4-N-(4-methoxyphenoxycarbonyl)-3-methyl-3,4-dihydroquinoxalin-2(1H)-one] | – | –
3 | 92 to 93 °C | CC(C)=CCN1c2ccccc2NC(=O)C1C (racemic) [XXV, (3RS)-3-Methyl-4-N-(3-methyl-2-buten-1-yl)-3,4-dihydroquinoxalin-2(1H)-one] | – | –
4 | 132 °C | CC(C)=CCN1CC(=O)Nc2cc(S(=O)(=O)Oc3ccccc3)ccc21 [Example XXX, 4-(3-Methyl-2-buten-1-yl)-7-phenoxysulfonyl-3,4-dihydroquinoxalin-2(1H)-one] | – | –
5 | 123 to 124 °C | C[C@H]1Nc2cc(Cl)ccc2NC1=O [Example IC, (3R)-6-Chloro-3-methyl-3,4-dihydroquinoxalin-2(1H)-one] | – | –
6 | 168 to 170 °C | C[C@H]1C(=O)Nc2ccc(Cl)cc2N1C(=O)Oc1ccc(F)cc1 [Example X, (3S)-6-Chloro-4-N-(4-fluorophenoxycarbonyl)-3-methyl-3,4-dihydroquinoxalin-2(1H)-one] | – | 0.8 µg/mL (≈ 2.39 µM)
7 | 133 to 136 °C | C[C@H]1C(=O)Nc2ccc(Cl)cc2N1C(=O)OCCBr [Example XII, (3S)-4-N-(2-Bromoethyloxycarbonyl)-6-chloro-3-methyl-3,4-dihydroquinoxalin-2(1H)-one] | – | < 0.8 µg/mL
8 | 185 °C | O=C1Nc2cc(Cl)ccc2N[C@H]1Cc1ccccc1 [Example II, (3S)-3-Benzyl-7-chloro-3,4-dihydroquinoxalin-2(1H)-one] | – | –
9 | 93 to 94 °C | COCCOC(=O)N1c2cc(Cl)ccc2NC(=O)[C@@H]1C [XXXVI, (3S)-6-Chloro-4-N-(2-methoxyethoxycarbonyl)-3-methyl-3,4-dihydroquinoxalin-2(1H)-one] | – | –
10 | 108 to 109 °C | CC(=O)CCN1c2ccccc2NC(=O)C1C (racemic) [XXXIV, (3RS)-3-Methyl-4-N-(3-oxo-1-butyl)-3,4-dihydroquinoxalin-2(1H)-one] | – | –
11 | 150 to 151 °C | CC(C)=CCN1CC(=O)Nc2ccc(Cl)cc21 [Example XV, 6-Chloro-4-N-(3-methyl-2-buten-1-yl)-3,4-dihydro-quinoxalin-2(1H)-one] | – | –
12 | 185 °C | C=C(C)OC(=O)N1c2ccc(C)cc2NC(=O)C1(C)C [VIII, 4-N-(Isopropenyloxycarbonyl)-3,3,7-trimethyl-3,4-di-hydroquinoxalin-2(1H)-one] | – | –
13 | 151 °C | COc1cc2c(cc1OC)NC(C)C(=O)N2 (stereo not drawn) [Example XVII, 6,7-Dimethoxy-3-methyl-3,4-dihydroquinoxalin-2(1H)-one] | – | –
14 | 185 to 188 °C | C[C@H]1C(=O)Nc2ccc(Cl)cc2N1C(=O)Oc1ccc(Cl)cc1 [Example XI, (3S)-6-Chloro-4-N-(4-chlorophenoxycarbonyl)-3-methyl-3,4-dihydroquinoxalin-2(1H)-one] | – | –
15 | 110 to 112 °C | C=CC(C)(C)C1C(=O)Nc2ccc(Cl)cc2N1CC=C(C)C (stereo not drawn) [Example XVI, 6-Chloro-4-N-(3-methyl-2-buten-1-yl)-3-(1,1-dimethyl-2-propen-1-yl)-3,4-dihydroquinoxalin-2(1H)-one] | – | –
16 | 122 to 123 °C | C[C@@H]1Nc2cc(Cl)ccc2NC1=O [Example IB, (3S)-6-Chloro-3-methyl-3,4-dihydroquinoxalin-2(1H)-one] | – | –
17 | 85 °C | C[C@H]1C(=O)Nc2c(cc(Cl)cc2[N+](=O)[O-])N1C(=O)OCc1ccccc1 [Example IV, (3S)-4-N-(Benzyloxycarbonyl)-6-chloro-3-methyl-8-nitro-3,4-dihydroquinoxalin-2(1H)-one] | – | > 0.8 µg/mL
18 | 140 °C (dec.) | O=C1Nc2cc(S(=O)(=O)Oc3ccccc3)ccc2N2C(=O)CCC12 (stereo not drawn) [XXVII, 7-Phenoxysulfonyl-3,3a-dihydropyrrolo[1,2-a]quinoxaline-1,4(2H,5H)-dione] | – | –
19 | 132 to 133 °C | CC1(C)Nc2ccc(Cl)cc2N(C2CC2)C1=O [XIX, 7-Chloro-1-N-(cyclopropyl)-3,3-dimethyl-3,4-dihydroquinoxalin-2(1H)-one] | – | –

Row | SMILES | melting point | IC50 [1] | MIC [2]
20 | C=COC(=O)N1c2cc(Cl)ccc2NC(=O)[C@@H]1C [XIV, (3S)-6-Chloro-3-methyl-4-N-(vinyloxycarbonyl)-3,4-di-hydroquinoxalin-2(1H)-one] | 177 to 179 °C | 600 nM | < 0.16 µg/mL
21 | C=C(C)OC(=O)N1c2cc(Cl)ccc2NC(=S)[C@@H]1C [XXIII, (3S)-6-Chloro-4-N-(isopropenyloxycarbonyl)-3-methyl-3,4-dihydroquinoxaline-2(1H)-thione] | 148 to 150 °C | 84.2 nM | < 0.01 µg/mL
22 | CC(C)=CCN1c2cc(Cl)ccc2NC(=O)[C@@H]1C [VI-A, (3S)-6-Chloro-3-methyl-4-N-(3-methyl-2-buten-1-yl)-3,4-dihydroquinoxalin-2(1H)-one] | 117 to 118 °C | 302 nM | 0.16 µg/mL (≈ 0.604 µM)
23 | C[C@H]1C(=O)Nc2c(N)cc(Cl)cc2N1C(=O)OCc1ccccc1 [Example V, (3S)-8-Amino-4-N-(benzyloxycarbonyl)-6-chloro-3-methyl-3,4-dihydroquinoxalin-2(1H)-one] | 152 to 154 °C | 21700 nM | –
24 | CC=CCN1c2cc(Cl)ccc2NC(=O)[C@@H]1C [VII, (3S)-6-Chloro-3-methyl-4-N-(2-buten-1-yl)-3,4-dihydroquinoxalin-2(1H)-one] | 87 to 88 °C | 399 nM | < 0.16 µg/mL
